The structures appear in SMILES notation. Bounds are passed on as bounds.

For the assay, the system named is MT4. Description: Ability to block replication of HIV-1 virus in MT-4 cells. Conditions: Homo sapiens.
Regarding `CCCN1Cc2cccc3c2N(CC1C)C(=O)C3` (stereo unspecified), the IC50 (usually the concentration at which inhibition is half-maximal) was above 250 µM. To `C=C(C)CN1Cc2cccc3c2C(O)(CC1C)C(=O)N3` (stereo unspecified) belongs above 250 µM. To `CC1Cn2c(S)nc3cccc(c32)CN1CC1CC1` (stereo unspecified) belongs 0.06 µM. In turn, `CCCN1Cc2cccc3c2n(c(=O)n3C)CC1C` (stereo unspecified) came in with an IC50 above 250 µM.

Regarding `CC1Cn2c(=O)oc3cccc(c32)CN1CC1CCC1` (stereo unspecified), the 50% inhibitory concentration (IC50) was above 2 µM. To `CCCN1Cc2cccc3[nH]c(=S)n(c23)CC1C` (stereo unspecified) belongs 1.7 µM; to `C=C(C)CN1Cc2cccc3c2C(CC1C)C(S)=N3` (stereo unspecified), above 10 µM. Take `CCC(=CCN1Cc2cc(Cl)cc3nc(S)n(c23)CC1C)CC` (stereo unspecified): half-maximal inhibition (IC50) required 0.012 µM. `CC(C)=CCN1Cc2cc(Cl)cc3[nH]c(=S)n(c23)C[C@@H]1C`: 0.039 µM corresponded to half-maximal inhibition (IC50).

In turn, `C/N=C(/S)N1CC(C)N(CC2CC2)Cc2cc(Cl)ccc21` (stereo unspecified) came in with an IC50 above 10 µM. `CCCN1Cc2cccc3[nH]c(=O)c(=O)n(c23)CC1C` (stereo unspecified): the IC50 was above 250 µM. In the case of `CC1Cn2c(S)nc3cc(Cl)cc(c32)CN1CCC1CC1` (stereo unspecified), the midpoint of inhibition, the IC50, lay at 0.42 µM. In turn, `CC(C)=CCN1Cc2cc(Cl)cc3[nH]c(=O)n(c23)C[C@@H]1C` returned an IC50 of 0.18 µM. In turn, `CC(C)=CCN1Cc2cccc3[nH]c(=S)n(c23)C[C@@H]1C` yielded an IC50 of 0.097 µM. As for `CC1Cn2c(O)nc3cccc(c32)CN1CC1CC1` (stereo unspecified), it took 10 µM to reach half-maximal inhibition (IC50). To `CC1CN2C(=O)CNc3cc(Cl)cc(c32)CN1CC1CC1` (stereo unspecified) belongs above 10 µM. Under `CC(C)=CCN1Cc2cc(Cl)cc3nc(S)n(c23)C[C@H]1C` stands 0.39 µM; under `CCCN1Cc2cccc3[nH]cc(c23)CC1C` (stereo unspecified), above 250 µM; under `CC(C)=CCN1Cc2cc(Cl)cc3nc(NC#N)n(c23)CC1C` (stereo unspecified), above 250 µM. `CCCN1Cc2cccc3[nH]c(=O)n(c23)CC1C` (stereo unspecified) returned an IC50 of 60 µM. To `CC(C)=CCN1Cc2cccc3nc(Sc4ccccc4)n(c23)CC1C` (stereo unspecified) belongs above 50 µM. To `COc1nc2cccc3c2n1CC(C)N(CC=C(C)C)C3` (stereo unspecified) belongs above 250 µM; to `CC(C)=CCN1Cc2cc(Cl)cc3nc([SeH])n(c23)CC1C` (stereo unspecified), 0.018 µM; to `C=CCN1Cc2cccc3c2C(CC1C)C(S)=N3` (stereo unspecified), above 250 µM. To `CCC(=CCN1Cc2cc(Cl)cc3nc(O)n(c23)CC1C)CC` (stereo unspecified) belongs 0.029 µM; to `CC1CN2c3c(cc(Cl)cc3NS2(=O)=O)CN1CC1CC1` (stereo unspecified), above 10 µM; to `CC1Cn2c(S)nc3cc(Cl)cc(c32)CN1CC1CCC1` (stereo unspecified), 0.026 µM. Turning to `CCCN1Cc2cccc3[nH]c(Cl)c(c23)CC1C` (stereo unspecified), the IC50 is above 50 µM.

`C=C(C)CN1Cc2cccc3ncn(c23)CC1C` (stereo unspecified) returned an IC50 above 2 µM. Consider `C=C(C)CN1Cc2cccc3c2C(CC1C)C(=O)N3` (stereo unspecified), for which the IC50 was above 50 µM.

With `Cc1cn([C@H]2C[C@H](N=[N+]=[N-])[C@@H](CO)O2)c(=O)[nH]c1=O` [ZIDOVUDINE], the half-maximal inhibitory concentration (IC50) amounted to 0.004 µM. To `O=c1[nH]cnc2c1ncn2[C@H]1CC[C@@H](CO)O1` [DIDANOSINE] belongs 5.5 µM; to `CC(C)=CCN1Cc2cc(Cl)cc3[nH]c(=O)n(c23)C[C@H]1C`, 4.2 µM; to `CCCN1Cc2cccc3nnn(c23)CC1C` (stereo unspecified), above 10 µM.

As for `C=C(C)CN1Cc2cccc3[nH]c(=O)n(c23)CC1C` (stereo unspecified), the IC50 came to 15.2 µM.

Regarding `CC(C)=CCN1Cc2cccc3nc(O)n(c23)CC1C` (stereo unspecified), half-maximal inhibition (IC50) required 9.8 µM. This IC50 lies about 1.6-fold lower than the previous one. Under `CC(C)=CCN1Cc2cccc3nc(N(C)C)n(c23)CC1C` (stereo unspecified) stands above 250 µM. The compound `CC1Cn2c(O)nc3cc(Cl)cc(c32)CN1CCC1CC1` (stereo unspecified) yielded an IC50 of 2.2 µM. Under `CCCN1Cc2cccc3c2n(c(=O)n3C(C)C)CC1C` (stereo unspecified) stands above 250 µM; under `CC1Cn2c(N=C(N)N)nc3cc(Cl)cc(c32)CN1CC1CC1` (stereo unspecified), above 50 µM; under `CCCN1Cc2cccc3c2n(c(=O)n3CC#N)CC1C` (stereo unspecified), above 250 µM. Under `COC(=O)Nc1nc2cc(Cl)cc3c2n1C[C@@H](C)N(CC=C(C)C)C3` stands above 10 µM; under `C=CCn1c(=O)n2c3c(cccc31)CN(CCC)C(C)C2` (stereo unspecified), above 50 µM.

Regarding `CC1Cn2c(O)nc3cc(Cl)cc(c32)CN1CC1CCC1` (stereo unspecified), half-maximal inhibition (IC50) was put at 0.38 µM. Compound `C=C(C)CN1Cc2cccc3nc(S)n(c23)CC1C` (stereo unspecified) showed an IC50 of 0.026 µM. The compound `CNc1nc2cccc3c2n1CC(C)N(CC=C(C)C)C3` (stereo unspecified) showed an IC50 above 250 µM.

These data come from ChEMBL document CHEMBL1125787, “Synthesis and anti-HIV-1 activity of 4,5,6,7-tetrahydro-5-methylimidazo[4,5,1-jk][1,4]benzodiazepin-2(1H)-on e (TIBO) derivatives. 2” (J Med Chem, 1991).
